According to ChEMBL document CHEMBL2380247, “Synthesis and biological evaluation of novel aliphatic amido-quaternary ammonium salts for anticancer chemotherapy: part II” (2013):
Activity calls are given as the source filed them. The calls are words filed in the database; no cut-off is given here.

Tests used:
NUGC-3 [1] = assay: Antiproliferative activity against human NUGC3 cells at 0.3 uM by SRB assay; type: functional
NUGC-3 [2] = assay: Antiproliferative activity against human NUGC3 cells at 0.1 uM by SRB assay; type: functional
NUGC-3 [3] = assay: Antiproliferative activity against human NUGC3 cells at 1 uM by SRB assay; type: functional
NUGC-3 [4] = assay: Antiproliferative activity against human NUGC3 cells at 10 uM by SRB assay; type: functional
NUGC-3 [5] = assay: Antiproliferative activity against human NUGC3 cells at 3 uM by SRB assay; type: functional
MDA-MB-231 [6] = assay: Antiproliferative activity against human MDA-MB-231 cells at 0.1 uM by SRB assay; type: functional
MDA-MB-231 [7] = assay: Antiproliferative activity against human MDA-MB-231 cells at 0.3 uM by SRB assay; type: functional
MDA-MB-231 [8] = assay: Antiproliferative activity against human MDA-MB-231 cells at 1 uM by SRB assay; type: functional
MDA-MB-231 [9] = assay: Antiproliferative activity against human MDA-MB-231 cells at 10 uM by SRB assay; type: functional
MDA-MB-231 [10] = assay: Antiproliferative activity against human MDA-MB-231 cells at 3 uM by SRB assay; type: functional
ACHN [11] = assay: Antiproliferative activity against human ACHN cells at 0.1 uM by SRB assay; type: functional
ACHN [12] = assay: Antiproliferative activity against human ACHN cells at 1 uM by SRB assay; type: functional
ACHN [13] = assay: Antiproliferative activity against human ACHN cells at 0.3 uM by SRB assay; type: functional
ACHN [14] = assay: Antiproliferative activity against human ACHN cells at 3 uM by SRB assay; type: functional
ACHN [15] = assay: Antiproliferative activity against human ACHN cells at 10 uM by SRB assay; type: functional
NCI-H23 [16] = assay: Antiproliferative activity against human NCI-H23 cells at 0.3 uM by SRB assay; type: functional
NCI-H23 [17] = assay: Antiproliferative activity against human NCI-H23 cells at 0.1 uM by SRB assay; type: functional
NCI-H23 [18] = assay: Antiproliferative activity against human NCI-H23 cells at 3 uM by SRB assay; type: functional
NCI-H23 [19] = assay: Antiproliferative activity against human NCI-H23 cells at 1 uM by SRB assay; type: functional
NCI-H23 [20] = assay: Antiproliferative activity against human NCI-H23 cells at 10 uM by SRB assay; type: functional
PC-3 [21] = assay: Antiproliferative activity against human PC3 cells at 0.1 uM by SRB assay; type: functional
PC-3 [22] = assay: Antiproliferative activity against human PC3 cells at 1 uM by SRB assay; type: functional
PC-3 [23] = assay: Antiproliferative activity against human PC3 cells at 0.3 uM by SRB assay; type: functional
PC-3 [24] = assay: Antiproliferative activity against human PC3 cells at 3 uM by SRB assay; type: functional
HCT-15 [25] = assay: Antiproliferative activity against human HCT15 cells at 0.1 uM by SRB assay; type: functional
PC-3 [26] = assay: Antiproliferative activity against human PC3 cells at 10 uM by SRB assay; type: functional
HCT-15 [27] = assay: Antiproliferative activity against human HCT15 cells at 0.3 uM by SRB assay; type: functional
HCT-15 [28] = assay: Antiproliferative activity against human HCT15 cells at 3 uM by SRB assay; type: functional
HCT-15 [29] = assay: Antiproliferative activity against human HCT15 cells at 1 uM by SRB assay; type: functional
HCT-15 [30] = assay: Antiproliferative activity against human HCT15 cells at 10 uM by SRB assay; type: functional
[31] = target: Rho-related GTP-binding protein RhoB (Homo sapiens) (UniProt P62745); assay: Inhibition of RhoB transactivation in human HeLa cells by luciferase reporter assay; type: cell-based
[32] = target: Rho-related GTP-binding protein RhoB (Homo sapiens) (UniProt P62745); assay: Transactivation of RhoB in human HeLa cells by luciferase reporter assay; type: cell-based
NCI-H23 [33] = assay: Antiproliferative activity against human NCI-H23 cells by SRB assay; type: functional
NUGC-3 [34] = assay: Antiproliferative activity against human NUGC3 cells by SRB assay; type: functional
HCT-15 [35] = assay: Antiproliferative activity against human HCT15 cells by SRB assay; type: functional
ACHN [36] = assay: Antiproliferative activity against human ACHN cells by SRB assay; type: functional
MDA-MB-231 [37] = assay: Antiproliferative activity against human MDA-MB-231 cells by SRB assay; type: functional
PC-3 [38] = assay: Antiproliferative activity against human PC3 cells by SRB assay; type: functional

Chain of Rho-related GTP-binding protein RhoB (Homo sapiens) (P62745 whole entry): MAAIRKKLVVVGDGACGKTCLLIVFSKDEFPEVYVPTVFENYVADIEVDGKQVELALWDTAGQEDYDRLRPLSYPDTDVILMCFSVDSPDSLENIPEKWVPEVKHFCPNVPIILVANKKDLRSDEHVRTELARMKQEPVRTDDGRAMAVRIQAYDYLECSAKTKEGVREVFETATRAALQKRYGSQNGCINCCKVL

Compound: CCCCCCCCCCCCCCCCCC(=O)N(C)CC[N+](C)(C)C
- growth, % of control at 0.3 µM (NUGC-3 [1]): 49%
- growth, % of control at 0.1 µM (NUGC-3 [2]): 77.9%
- growth, % of control at 1 µM (NUGC-3 [3]): 10.4%
- growth, % of control at 10 µM (NUGC-3 [4]): -18.7%
- growth, % of control at 3 µM (NUGC-3 [5]): 2.4%
- growth, % of control at 0.1 µM (MDA-MB-231 [6]): 90.6%
- growth, % of control at 0.3 µM (MDA-MB-231 [7]): 84.2%
- growth, % of control at 1 µM (MDA-MB-231 [8]): 77.2%
- growth, % of control at 10 µM (MDA-MB-231 [9]): 12.8%
- growth, % of control at 3 µM (MDA-MB-231 [10]): 37%
- growth, % of control at 0.1 µM (ACHN [11]): 81.8%
- growth, % of control at 1 µM (ACHN [12]): 44.6%
- growth, % of control at 0.3 µM (ACHN [13]): 71.3%
- growth, % of control at 3 µM (ACHN [14]): 23.4%
- growth, % of control at 10 µM (ACHN [15]): -15.6%
- growth, % of control at 0.3 µM (NCI-H23 [16]): 90.2%
- growth, % of control at 0.1 µM (NCI-H23 [17]): 94.3%
- growth, % of control at 3 µM (NCI-H23 [18]): 51.6%
- growth, % of control at 1 µM (NCI-H23 [19]): 84.4%
- growth, % of control at 10 µM (NCI-H23 [20]): 11.1%
- growth, % of control at 0.1 µM (PC-3 [21]): 93.2%
- growth, % of control at 1 µM (PC-3 [22]): 39.3%
- growth, % of control at 0.3 µM (PC-3 [23]): 91.9%
- growth, % of control at 3 µM (PC-3 [24]): 1.1%
- growth, % of control at 0.1 µM (HCT-15 [25]): 92.9%
- growth, % of control at 10 µM (PC-3 [26]): -11.6%
- growth, % of control at 0.3 µM (HCT-15 [27]): 98.6%
- growth, % of control at 3 µM (HCT-15 [28]): 25.4%
- growth, % of control at 1 µM (HCT-15 [29]): 61.4%
- growth, % of control at 10 µM (HCT-15 [30]): 20.5%
- inhibition [31]: Active
- Activity [32]: Active
- GI50 (NCI-H23 [33]): 1.52 µM
- GI50 (NUGC-3 [34]): 0.14 µM
- GI50 (HCT-15 [35]): 0.8 µM
- GI50 (ACHN [36]): 0.36 µM
- GI50 (MDA-MB-231 [37]): 1.07 µM
- GI50 (PC-3 [38]): 0.42 µM
